Literature values in patent US20240180903A1, “INJECTABLE PHARMACEUTICAL COMPOSITION, PREPARATION METHOD THEREFOR AND USE THEREOF” (ZHEJIANG CUIZE PHARMACEUTICAL TECHNOLOGY CO., LTD., priority 2022, published 2024).
pIC50: −log10 of the molar value.

Key:
HIV = conditions: read-out: IC50 against HIV
HIV RNA in plasma = conditions: oral 5 mg/d or 30 mg/d, 10 d after a single dose

Question: With C[C@H]1CO[C@@H]2Cn3cc(C(=O)NCc4ccc(F)cc4F)c(=O)c(O)c3C(=O)N12 [Cabotegravir] as the compound, how does the pIC50 (HIV) read?
Answer: 9.66

Question: And the “HIV RNA in plasma” value (HIV RNA in plasma)?
Answer: 2.2-2.3 copies/mL
